From patent US7291580B2, “6-(1,1-difluoroalkyl)-4-aminopicolinates and their use as herbicides” (Dow AgroSciences LLC, priority 2004, dated 2007) come the findings set out here.

Assay [1] has as its system Ivyleaf Morningglory (Ipomoea hederacea). In words: Preemergence herbicidal activity. It counts as in vivo. Particulars: rate 560 ppm; visual score after 3 weeks, 0 = no injury, 100 = complete kill or no germination. The procedure:
(§1) The soil matrix was contained in plastic pots with a surface area of 113 square centimeters. […] The stock solutions obtained were diluted with a 99.9:0.1 mixture of water and Tween® […] surfactant to obtain application solutions of known concentration. […] A 2.5 mL aliquot of each solution of known concentration was sprayed evenly onto the soil surface (113 sq. cm) of each seeded pot using a Cornwall 5.0 mL glass syringe fitted with a TeeJet TN-3 hollow cone nozzle to obtain thorough coverage of the soil in each pot. […] The water was added by top-irrigation.

The test system of assay [2] is Crabgrass (large) (Digitaria sanguinalis). The assay can be described thus: Preemergence herbicidal activity. In kind it is in vivo. Particulars: rate 560 ppm; visual score after 3 weeks, 0 = no injury, 100 = complete kill or no germination. As to the method: as §1
The subject of assay [3] is Lambsquarter (Chenopodium album). The assay can be described thus: Preemergence herbicidal activity. In kind it is in vivo. The conditions noted are these: rate 560 ppm; visual score after 3 weeks, 0 = no injury, 100 = complete kill or no germination. As to the method: as §1
Assay [4] concerns Giant Foxtail (Setaria faberi). The assay can be described thus: Preemergence herbicidal activity. It counts as in vivo. The conditions noted are these: rate 560 ppm; visual score after 3 weeks, 0 = no injury, 100 = complete kill or no germination. As to the method:
as §1

The test system of assay [5] is Pigweed (redroot) (Amaranthus retroflexus). The conditions noted are these: rate 123 (unit not given); visual score after 2 weeks, 0 = no injury, 100 = complete kill. The procedure:
(§2) Seeds of the desired test plant species were planted in Grace-Sierra MetroMix® 306 planting mixture, which typically has a pH of 6.0 to 6.8 and an organic matter content of about 30 percent, in plastic pots with a surface area of 64 square centimeters. […] The plants were grown for 7-21 days in a greenhouse with an approximate 15 hr photoperiod which was maintained at about 23-29° C. during the day and 22-28° C. during the night. Nutrients and water were added on a regular basis and supplemental lighting was provided with overhead metal halide 1000-Watt lamps as necessary. The plants were employed for testing when they reached the first or second true leaf stage.
(§3) A weighed amount, determined by the highest rate to be tested, of each test compound was placed in a 20 mL glass vial and was dissolved in 4 mL of a 97:3 v/v (volume/volume) mixture of acetone and dimethyl sulfoxide (DMSO) to obtain concentrated stock solutions. […]
(§4) The treated plants and control plants were placed in a greenhouse as described above and watered by sub-irrigation to prevent wash-off of the test compounds. After 2 weeks the condition of the test plants as compared with that of the untreated plants was determined visually and scored on a scale of 0 to 100 percent where 0 corresponds to no injury and 100 corresponds to complete kill.

Assay [6] has as its system Wheat (var.Merica) (Triticum aestivum). Particulars: rate 123 (unit not given); crop selectivity to wheat; visual score after 2 weeks, 0 = no injury, 100 = complete kill. The procedure: as §2, §3, §4
Assay [7] deals with Cocklebur (Xanthium strumarium). In words: Postemergence herbicidal activity. It counts as in vivo. Particulars: visual score after 2 weeks, 0 = no injury, 100 = complete kill. The procedure:
as §2
(§5) A weighed amount, determined by the highest rate to be tested, of each test compound was placed in a 20 mL glass vial and was dissolved in 4 mL of a 97:3 v/v (volume/volume) mixture of acetone and dimethyl sulfoxide (DMSO) to obtain concentrated stock solutions. […] The concentrated stock solutions obtained were diluted with an aqueous mixture containing acetone, water, isopropyl alcohol, DMSO, Atplus 411F crop oil concentrate, and Triton X-155 surfactant in a 48.5:39:10:1.5:1.0:0.02 v/v ratio to obtain spray solutions of known concentration. The solutions containing the highest concentration to be tested were prepared by diluting 2 mL aliquots of the stock solution with 13 mL of the mixture and lower concentrations were prepared by serial dilution of the stock solution. Approximately 1.5 mL aliquots of each solution of known concentration were sprayed evenly onto each of the test plant pots using a DeVilbiss atomizer driven by compressed air pressure of 2 to 4 psi (140 to 280 kiloPascals) to obtain thorough coverage of each plant. Control plants were sprayed in the same manner with the aqueous mixture. In this test an application rate of 1 ppm results in the application of approximately 1 g/Ha.
as §4

Assay [8] concerns Lambsquarter (Chenopodium album). In words: Postemergence herbicidal activity. It counts as in vivo. The conditions noted are these: visual score after 2 weeks, 0 = no injury, 100 = complete kill. The procedure: as §2, §5, §4
In assay [9] the test system is Giant Foxtail (Setaria faberi). The assay can be described thus: Postemergence herbicidal activity. It counts as in vivo. The conditions noted are these: visual score after 2 weeks, 0 = no injury, 100 = complete kill. As to the method: as §2, §5, §4
The test system of assay [10] is Barnyardgrass (Echinochloa crus-galli). The assay can be described thus: Postemergence herbicidal activity. In kind it is in vivo. Particulars: visual score after 2 weeks, 0 = no injury, 100 = complete kill. As to the method: as §2, §5, §4

Each structure is given as a SMILES string.

For the compound `COC(=O)c1nc(C(C)(F)F)cc(N)c1Cl` [Compound 1, Methyl 4-amino-3-chloro-6-(1,1-difluroethyl)pyridine-2-carboxylate], in assay [1], the “Pre-emergent (% injury) IPOHE” value came out at 100%. For the same compound, in assay [2], the “Pre-emergent (% injury) DIGSA” value was 100%. Moreover, the “Pre-emergent (% injury) CHEAL” value in assay [3] was found to be 100%. For the same compound, in assay [4], the “Pre-emergent (% injury) SETFA” value is recorded as 100%. In [5], the “Post-emergent (% injury) AMARE” value is recorded as 100%. Also, the “Post-emergent (% injury) TRZAS” value in assay [6] is given as 0%. The “Post-emergent (% injury) XANST” value in assay [7] (rate 245 ppm) amounted to 100%. Moreover, the “Post-emergent (% injury) CHEAL” value in assay [8] (rate 123 (unit not given)) and in assay [8] (rate 245 ppm) was 100% in each case. For the same compound, the “Post-emergent (% injury) SETFA” value in [9] (rate 245 ppm) is recorded as 65%. Further, the “Post-emergent (% injury) ECHCG” value in assay [10] (rate 245 ppm) is recorded as 75%.
Consider `CC(F)(F)c1cc(N)c(Cl)c(C(=O)O)n1` [Compound 2, 4-amino-3-chloro-6-(1,1-difluoroethyl)pyridine-2-carboxylic acid], for which, in [1], the “Pre-emergent (% injury) IPOHE” value came out at 100%. Moreover, the “Pre-emergent (% injury) DIGSA” value in assay [2] stood at 98%. In addition, the “Pre-emergent (% injury) CHEAL” value in assay [3] was 100%. In assay [4], the “Pre-emergent (% injury) SETFA” value came to 95%. Besides, the “Post-emergent (% injury) XANST” value in assay [7] (rate 250 ppm) is 100%. Moreover, the “Post-emergent (% injury) CHEAL” value in [8] (rate 250 ppm) turned out to be 100%. Besides, the “Post-emergent (% injury) SETFA” value in [9] (rate 250 ppm) turned out to be 85%. Besides, the “Post-emergent (% injury) ECHCG” value in assay [10] (rate 250 ppm) is reported as 80%.
